Measurements taken from article PMC3677712 (Bioorganic & medicinal chemistry letters, 2013).
Read-outs that look alike come from different tables or passages of the source. Each block holds one compound with its values, some of them ahead of it.

Experiments:
[1] = system: ALK2 (Q207D); conditions: mouse model expressing a constitutively active form of ALK2 (Q207D); cited from earlier work
[2] = Intrinsic clearance in hepatic microsomes; format: in vitro ADME; conditions: rat
[3] = Intrinsic clearance in hepatic microsomes; format: in vitro ADME; conditions: mouse
[4] = Intrinsic clearance in hepatic microsomes; format: in vitro ADME; conditions: human
[5] = target: T1, AMPK (AMPK-A1/B1/G1) (Homo sapiens, UniProt Q13131); assay: In vitro kinase assay; format: biochemical; conditions: 10-dose, 3-fold dilution from 100 μM, 10 μM ATP
[6] = target: T1, AMPK (AMPK-A1/B1/G1); conditions: reference compounds previously run in these assays; cited from earlier work
[7] = predicted from microsomal intrinsic clearance

T1 sequence (Q13131 whole entry): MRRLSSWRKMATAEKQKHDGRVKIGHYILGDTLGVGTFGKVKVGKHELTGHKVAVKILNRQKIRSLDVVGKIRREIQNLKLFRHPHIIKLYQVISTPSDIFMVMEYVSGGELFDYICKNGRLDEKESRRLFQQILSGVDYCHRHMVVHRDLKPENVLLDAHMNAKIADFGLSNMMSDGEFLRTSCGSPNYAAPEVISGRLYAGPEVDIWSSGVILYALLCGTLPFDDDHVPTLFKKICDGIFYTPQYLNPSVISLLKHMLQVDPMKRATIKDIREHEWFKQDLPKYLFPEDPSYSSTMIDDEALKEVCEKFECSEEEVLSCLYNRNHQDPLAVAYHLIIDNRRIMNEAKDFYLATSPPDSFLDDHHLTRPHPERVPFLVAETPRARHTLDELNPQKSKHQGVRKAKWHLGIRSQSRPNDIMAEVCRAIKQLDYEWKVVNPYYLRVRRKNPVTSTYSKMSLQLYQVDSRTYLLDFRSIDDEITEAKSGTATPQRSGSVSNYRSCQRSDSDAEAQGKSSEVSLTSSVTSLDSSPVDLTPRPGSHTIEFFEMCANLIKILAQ
T1 sequence (Q9Y478 whole entry partner): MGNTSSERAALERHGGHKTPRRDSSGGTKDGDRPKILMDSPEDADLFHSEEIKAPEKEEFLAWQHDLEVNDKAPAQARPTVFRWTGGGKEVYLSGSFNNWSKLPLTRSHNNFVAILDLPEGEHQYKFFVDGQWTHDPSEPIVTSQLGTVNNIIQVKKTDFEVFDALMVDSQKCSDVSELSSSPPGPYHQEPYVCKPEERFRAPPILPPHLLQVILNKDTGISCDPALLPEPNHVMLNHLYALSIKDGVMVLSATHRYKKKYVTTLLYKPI
T1 sequence (P54619 whole entry partner): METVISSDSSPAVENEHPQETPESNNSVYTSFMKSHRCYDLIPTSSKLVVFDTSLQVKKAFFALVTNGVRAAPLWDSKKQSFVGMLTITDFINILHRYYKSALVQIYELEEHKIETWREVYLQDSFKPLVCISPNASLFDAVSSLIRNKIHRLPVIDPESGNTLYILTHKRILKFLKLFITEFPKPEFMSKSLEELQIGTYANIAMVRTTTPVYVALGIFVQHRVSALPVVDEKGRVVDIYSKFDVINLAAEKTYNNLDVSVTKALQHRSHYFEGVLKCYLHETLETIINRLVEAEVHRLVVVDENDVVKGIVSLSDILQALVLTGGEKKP

SMILES: c1ccc2c(-c3cnn4cc(-c5ccc(N6CCNCC6)cc5)cnc34)ccnc2c1 [LDN-193189, 2, LDN-193189]
effect on ectopic ossification (in words) [1]: could blunt ectopic ossification

CLint scaled ([2]; liver microsomes): 148 mL/min/kg
CLHEP [2, 7]: 47.5 mL/min/kg
CLint scaled ([3]; liver microsomes): 617 mL/min/kg
CLHEP [3, 7]: 78.5 mL/min/kg
CLint scaled ([4]; liver microsomes): 516 mL/min/kg
CLHEP [4, 7]: 20.2 mL/min/kg
IC50 AMPK [5]: Inactive
SMILES: COc1ccc(-c2cnc3c(-c4cccc5ncccc45)cnn3c2)cc1 [7g]

SMILES: CC(C)Oc1ccc(-c2cnc3c(-c4ccnc5ccccc45)cnn3c2)cc1 [DMH1, 3, DMH1]
IC50 AMPK [6]: Inactive
